In US20230413824A1, “AGROCHEMICAL COMPOSITION COMPRISING 3-SUBSTITUTED PHENYLAMIDINE COMPOUNDS AND USE THEREOF” (PI INDUSTRIES LIMITED, priority 2020, published 2023):
Read-outs that look alike come from different tables or passages of the source.

Assays:
Format in all cases: in vivo
Alternaria solani = Alternaria solani test in tomato (preventive, glasshouse)
Erysiphe cichoracearum = Erysiphe cichoracearum test in cucumber (preventive, glasshouse); settings: single compound
Botrytis cinerea = Botrytis cinerea test in tomato (preventive, glasshouse); settings: single compound; for pest or weed control at 1 ppm: Conc. 1 ppm; for pest or weed control at 5 ppm: Conc. 5 ppm; for pest or weed control at 20 ppm: Conc. 20 ppm
Septoria nodorum = assay: Parastagonospora nodorum/Septoria nodorum/Stagnospora nodorum test in wheat (preventive, glasshouse); settings: single compound
Description: The single compounds or compound combinations were dissolved in 2% DMSO/Acetone and then mixed with water containing emulsifier to a calibrated spray volume of 50 mL. The spray solutions were poured into spray bottles for further applications.
To test the preventive activity of compounds, healthy young wheat plants, raised in the greenhouse, were sprayed with the single compound or mixture preparation at the stated application rates inside the spray cabinets using hollow cone nozzles. One day after treatment, the plants were inoculated with a suspension containing 2.8×10^6 Stagnospora nodorum inoculum. The inoculated plants were then kept in a greenhouse chamber at 22-25° C. temperature and 90-100% relative humidity for disease expression.
A visual assessment of the performance of the compounds and respective compound combinations was carried out by rating the disease severity (0-100% scale) on treated plants 3, 7 and 10 days after application. Efficacy (% control) of the compounds was calculated by comparing the disease rating in the treatment with the one of the untreated control. The compounds were also assessed for their plant compatibility by recording symptoms like necrosis, chlorosis & stunting. The results are shown for the compound of formula (I-1) to (I-5) in Table E1-E5.

Phakopsora pachyrhizi = Phakopsora pachyrhizi test in soybean (preventive, glasshouse); settings: single compound; for pest or weed control at 0.0001 ppm: Conc. 0.0001 ppm; for pest or weed control at 0.001 ppm: Conc. 0.001 ppm; for pest or weed control at 0.01 ppm: Conc. 0.01 ppm
Pyricularia oryzae = assay: whole plant or invertebrate
[1] = Golovinomyces cichoracearum, preventive spray on cucumber, read-out: Observed Efficacy (%)
[2] = Table F5, Botrytis cinerea in tomato, preventive, read-out: Observed Efficacy (%)
[3] = Parastagonospora nodorum, read-out: Observed Efficacy (%)
[4] = Phakopsora pachyrhizi, soybean, preventive, Table D5, read-out: Observed Efficacy (%)
[5] = Pyricularia oryzae, read-out: Observed Efficacy
[6] = Table F4, Botrytis cinerea in tomato, preventive, read-out: Observed Efficacy (%)
[7] = Phakopsora pachyrhizi, soybean, preventive, Table D4, read-out: Observed Efficacy (%)
[8] = Table B4, single compound, Conc. 0.05 ppm, preventive
[9] = Table B4, single compound, Conc. 0.1 ppm, preventive
[10] = single compound, 0.05 ppm, preventive
[11] = single compound, 0.1 ppm, preventive
[12] = 0.05 ppm, preventive spray on cucumber
[13] = 0.1 ppm, preventive spray on cucumber
[14] = Conc. 0.05 ppm, soybean, preventive, Table D4
[15] = Conc. 0.05 ppm, soybean, preventive, Table D5
[16] = Conc. 0.1 ppm, soybean, preventive, Table D4
[17] = Conc. 0.1 ppm, soybean, preventive, Table D5

With `CCN(C)C=Nc1cc(F)cc(Cc2cccc(C)c2)c1C` [Compound (I-5), N-ethyl-N′-(5-fluoro-2-methyl-3-(3-methylbenzyl)phenyl)-N-methylformimidamide] the pest or weed control at 1 ppm (Alternaria solani; Alternaria solani, single compound, 1 ppm, preventive, read-out: Observed Efficacy (%)) was 13%, the pest or weed control at 5 ppm (Alternaria solani; Alternaria solani, single compound, 5 ppm, preventive, read-out: Observed Efficacy (%)) was 17% and the pest or weed control at 20 ppm (Alternaria solani; Alternaria solani, single compound, 20 ppm, preventive, read-out: Observed Efficacy (%)) was 27%. For the same compound, the pest or weed control at 1 ppm (Erysiphe cichoracearum; [1]) was 23%, the pest or weed control at 5 ppm (Erysiphe cichoracearum; [1]) was 47% and the pest or weed control at 20 ppm (Erysiphe cichoracearum; Golovinomyces cichoracearum, 20 ppm, preventive spray on cucumber, read-out: Observed Efficacy (%)) was 77%. The pest or weed control at 1 ppm (Botrytis cinerea; [2]) was 53%, the pest or weed control at 5 ppm (Botrytis cinerea; [2]) was 63% and the pest or weed control at 20 ppm (Botrytis cinerea; [2]) was 73%. It also gave a pest or weed control at 1 ppm (Septoria nodorum; [3]) of 23%, a pest or weed control at 5 ppm (Septoria nodorum; [3]) of 33% and a pest or weed control at 20 ppm (Septoria nodorum; [3]) of 40%. The pest or weed control at 0.0001 ppm (Phakopsora pachyrhizi; [4]) was 37%, the pest or weed control at 0.001 ppm (Phakopsora pachyrhizi; [4]) was 50% and the pest or weed control at 0.01 ppm (Phakopsora pachyrhizi; [4]) was 61%. The pest or weed control at 1 ppm (Pyricularia oryzae; [5]) was 23%, the pest or weed control at 5 ppm (Pyricularia oryzae; [5]) was 37% and the pest or weed control at 20 ppm (Pyricularia oryzae; [5]) was 47%.
Work on `CCN(C)C=Nc1cc(C)cc(Cc2cccc(F)c2)c1C` [Compound (I-4), N-ethyl-N′-(3-(3-fluorobenzyl)-2,5-dimethylphenyl)-N-methylformimidamide] yielded a pest or weed control at 1 ppm (Alternaria solani; Alternaria solani, Table B4, single compound, Conc. 1 ppm, preventive, read-out: Observed Efficacy (%)) of 20%, a pest or weed control at 5 ppm (Alternaria solani; Alternaria solani, Table B4, single compound, Conc. 5 ppm, preventive, read-out: Observed Efficacy (%)) of 27% and a pest or weed control at 20 ppm (Alternaria solani; Alternaria solani, Table B4, single compound, Conc. 20 ppm, preventive, read-out: Observed Efficacy (%)) of 37%. It also gave a pest or weed control at 1 ppm (Erysiphe cichoracearum; [1]) of 33%, a pest or weed control at 5 ppm (Erysiphe cichoracearum; [1]) of 63% and a pest or weed control at 1 ppm (Botrytis cinerea; [6]) of 10%. The pest or weed control at 5 ppm (Botrytis cinerea; [6]) was 17%, the pest or weed control at 20 ppm (Botrytis cinerea; [6]) was 23% and the pest or weed control at 1 ppm (Septoria nodorum; [3]) was 20%. It also gave a pest or weed control at 5 ppm (Septoria nodorum; [3]) of 23%, a pest or weed control at 20 ppm (Septoria nodorum; [3]) of 27% and a pest or weed control at 0.0001 ppm (Phakopsora pachyrhizi; [7]) of 43%. The pest or weed control at 0.001 ppm (Phakopsora pachyrhizi; [7]) was 47%, the pest or weed control at 0.01 ppm (Phakopsora pachyrhizi; [7]) was 59% and the pest or weed control at 1 ppm (Pyricularia oryzae; [5]) was 17%. It also gave a pest or weed control at 5 ppm (Pyricularia oryzae; [5]) of 23% and a pest or weed control at 20 ppm (Pyricularia oryzae; [5]) of 33%.
With `Cn1cc(C(=O)Nc2cccc3c2[C@@H]2CC[C@H]3C2=C(Cl)Cl)c(C(F)F)n1` (racemic) [Benzovindiflupyr, benzovindiflupyr] the “Observed Efficacy (%)” value (Alternaria solani; Table B3, single compound, Conc. 0.05 ppm, preventive) was 14%, the “Observed Efficacy (%)” value (Alternaria solani; Table B3, single compound, Conc. 0.1 ppm, preventive) was 29% and the “Observed Efficacy (%)” value (Alternaria solani; [8]) was 14%. The “Observed Efficacy (%)” value (Alternaria solani; [9]) was 29%, the “Observed Efficacy (%)” value (Alternaria solani; [10]) was 14% and the “Observed Efficacy (%)” value (Alternaria solani; single compound, 0.05 ppm, preventive spray) was 14%. For the same compound, the “Observed Efficacy (%)” value (Alternaria solani; [11]) was 29%, the “Observed Efficacy (%)” value (Alternaria solani; single compound, 0.1 ppm, preventive spray) was 29% and the “Observed Efficacy (%)” value (Erysiphe cichoracearum; 0.05 ppm, cucumber, preventive) was 24%. The “Observed Efficacy (%)” value (Erysiphe cichoracearum; [12]) was 24%, the “Observed Efficacy (%)” value (Erysiphe cichoracearum; 0.1 ppm, cucumber, preventive) was 29% and the “Observed Efficacy (%)” value (Erysiphe cichoracearum; [13]) was 29%. For the same compound, the “Observed Efficacy (%)” value (Botrytis cinerea; Table F4, Conc. 0.05 ppm, Botrytis cinerea in tomato, preventive) was 33%, the “Observed Efficacy (%)” value (Botrytis cinerea; Table F4, Conc. 0.1 ppm, Botrytis cinerea in tomato, preventive) was 42% and the “Observed Efficacy (%)” value (Botrytis cinerea; Table F5, Conc. 0.1 ppm, Botrytis cinerea in tomato, preventive) was 42%. The “Observed Efficacy (%)” value (Botrytis cinerea; Conc. 0.05 ppm, preventive spray on tomato, % control vs untreated) was 33%, the “Observed Efficacy (%)” value (Botrytis cinerea; Conc. 0.1 ppm, preventive spray on tomato, % control vs untreated) was 42% and the “Observed Efficacy (%)” value (Septoria nodorum; 0.05 ppm) was 29%. For the same compound, the “Observed Efficacy (%)” value (Phakopsora pachyrhizi; 0.05 ppm, preventive spray on soybean) was 27%, the “Observed Efficacy (%)” value (Phakopsora pachyrhizi; 0.1 ppm, preventive spray on soybean) was 38% and the “Observed Efficacy (%)” value (Phakopsora pachyrhizi; [14]) was 27%. For the same compound, the “Observed Efficacy (%)” value (Phakopsora pachyrhizi; [15]) was 27%, the “Observed Efficacy (%)” value (Phakopsora pachyrhizi; [16]) was 38% and the “Observed Efficacy (%)” value (Phakopsora pachyrhizi; [17]) was 38%. For the same compound, the “Observed Efficacy” value (Pyricularia oryzae; single compound, Conc. 0.05 ppm, preventive spray, rice) was 17%.
`N#Cc1sc2c(=O)c3ccccc3c(=O)c=2sc1C#N` [Dithianon, dithianon] was tested, and the pest or weed control at 0.05 ppm (Alternaria solani; Alternaria solani, single compound, 0.05 ppm, preventive spray, read-out: Observed Efficacy (%)) was 21%, the pest or weed control at 0.1 ppm (Alternaria solani; Alternaria solani, single compound, 0.1 ppm, preventive spray, read-out: Observed Efficacy (%)) was 26% and the “Observed Efficacy (%)” value (Alternaria solani; [8]) was 21%. The “Observed Efficacy (%)” value (Alternaria solani; [9]) was 26%, the “Observed Efficacy (%)” value (Alternaria solani; [10]) was 21% and the “Observed Efficacy (%)” value (Alternaria solani; [11]) was 26%. The pest or weed control at 0.05 ppm (Erysiphe cichoracearum; Golovinomyces cichoracearum, 0.05 ppm, cucumber, preventive, read-out: Observed Efficacy (%)) was 11%, the pest or weed control at 0.1 ppm (Erysiphe cichoracearum; Golovinomyces cichoracearum, 0.1 ppm, cucumber, preventive, read-out: Observed Efficacy (%)) was 18% and the “Observed Efficacy (%)” value (Erysiphe cichoracearum; [12]) was 11%. For the same compound, the “Observed Efficacy (%)” value (Erysiphe cichoracearum; [13]) was 18%, the pest or weed control at 0.05 ppm (Botrytis cinerea; Botrytis cinerea, Conc. 0.05 ppm, preventive spray on tomato, % control vs untreated, read-out: Observed Efficacy (%)) was 38% and the pest or weed control at 0.1 ppm (Botrytis cinerea; Botrytis cinerea, Conc. 0.1 ppm, preventive spray on tomato, % control vs untreated, read-out: Observed Efficacy (%)) was 45%. The pest or weed control at 0.05 ppm (Septoria nodorum; Parastagonospora nodorum, 0.05 ppm, read-out: Observed Efficacy (%)) was 11%, the pest or weed control at 0.1 ppm (Septoria nodorum; Parastagonospora nodorum, 0.1 ppm, read-out: Observed Efficacy (%)) was 16% and the pest or weed control at 0.05 ppm (Phakopsora pachyrhizi; Phakopsora pachyrhizi, 0.05 ppm, preventive spray on soybean, read-out: Observed Efficacy (%)) was 15%. The pest or weed control at 0.1 ppm (Phakopsora pachyrhizi; Phakopsora pachyrhizi, 0.1 ppm, preventive spray on soybean, read-out: Observed Efficacy (%)) was 24%, the “Observed Efficacy (%)” value (Phakopsora pachyrhizi; [14]) was 15% and the “Observed Efficacy (%)” value (Phakopsora pachyrhizi; [15]) was 15%. For the same compound, the “Observed Efficacy (%)” value (Phakopsora pachyrhizi; [16]) was 24%, the “Observed Efficacy (%)” value (Phakopsora pachyrhizi; [17]) was 24% and the pest or weed control at 0.05 ppm (Pyricularia oryzae; [5]) was 34%. For the same compound, the pest or weed control at 0.1 ppm (Pyricularia oryzae; [5]) was 42%.
